For series [1], the system named is mice. Also noted: method as in PMID 28349969. As to conditions: cited from earlier work.
For series [2], the system named is paclitaxel-induced neuropathy in mice. On the set-up: method as in PMID 28349969. The settings on record: up to 25 mg/kg; cited from earlier work.
The test system of series [3] is primary cortical neurons. The experiment in a line: Synaptogenesis assay of primary cortical neurons (image-based HCS) against paclitaxel-induced neurotoxicity. It is filed as cell-based, mouse. The settings on record: Mus musculus, Primary cortical neuron; test compound 1000 nM + paclitaxel 1 μM; mean ± SE; read-out: B: Synaptogenesis (% of control) of test compound (1000 nM) + paclitaxel (1 μM). The procedure, abridged:
(§1)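 Cortical neurons from P0 C57BL/6J mouse pups pretreated with compound at 10 and 1000 nM before 1 μM paclitaxel. Cells fixed and immunostained for MAP2 (processes), synaptophysin (synaptic puncta) and Hoechst, then imaged by automated high-content microscopy at 10×. Neurite outgrowth and synaptogenesis scored from multiparameter image analysis.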

Series [4] deals with primary cortical neurons. In words: Neurite outgrowth assay of primary cortical neurons (image-based HCS) against paclitaxel-induced neurotoxicity. It is filed as cell-based, mouse. The settings on record: Mus musculus, Primary cortical neuron; test compound 1000 nM + paclitaxel 1 μM; mean ± SE; read-out: D: Neurite outgrowth (% of control) of test compound (1000 nM) + paclitaxel (1 μM). An outline of the steps: as §1

The test system of series [5] is mouse primary DRG neurons. In words: Neurite outgrowth assay of DRG neurons (image-based HCS) against paclitaxel-induced neurotoxicity. It is filed as cell-based. The settings on record: for activation at 1 µM: Mus musculus, DRG neuron. The procedure: All these 19 compounds were then subjected to the neurite outgrowth assay of dorsal root ganglion (DRG) neurons paired with an image-based HCS to analyze whether they had neuroprotective potential. Quantification of neurite outgrowth under different regimens is shown in Figure 3, wherein DRG neurons incubated in 50 nM paclitaxel could cause 60% reduction in neurite outgrowth compared to the control (no drug treatment). […] Taken together, CN016 is selected as a promising lead for further development.
Primary cortical or DRG cells were fixed with 4% paraformaldehyde for 15 min following compound and paclitaxel treatment. After washing with PBS, the fixed cells were permeabilized with PBS containing 0.05% Triton X-100 for 20 min and then blocked with commercial blocking buffer (#GTX30963; GeneTex, USA) at room temperature for 1 h. Subsequently, the cortical cells were stained for the extending processes and synaptic puncta by using anti-MAP2 (#MBS502140, 1:500; Mybiosource, USA) and anti-synaptophysin (#ab32127, 1:500; Abcam, UK) overnight. DRG cells were stained for the neurite and neuron nucleus by using anti-β III tubulin (#D71G9, 1:600; Cell Signaling, USA) and anti-NeuN monoclonal antibody (#MAB377, 1:400; Millipore, USA) overnight. On the second day, the samples were washed for 30 min with wash buffer and incubated with secondary antibodies (Alexa-488, 647 1:600; Thermo Fisher, USA) and 4 μg/mL Hoechst 33258 (#94403-1ML, 1:100; Merck, USA) at room temperature for 1 h. In the initial experiments of screening the potential neuroprotective compound for CIPN, ImageXpress^Micro (IXM) high-content imaging system (Molecular Devices, USA) driven by MetaXpress software was used. Images of treated cells were automatically acquired by using a 10× objective. Twenty-one images per well were taken in each of three channels (DAPI, FITC, and Cy5) to create a whole view of the entire neural network. The integrity of the neural network was evaluated using TIF images by importing them into MetaXpress software for analysis using the module for multiparameter, such as Neurite Outgrowth, Cell Scoring, and Transfluor. Furthermore, the score of synaptogenesis was analyzed in AcuityXpress software (Molecular Devices, USA).

Series [6] deals with sciatic nerve fibers. The experiment in a line: Ultrastructure evaluation of the sciatic nerve (TEM). It is filed as in vivo, mouse. The settings on record: paclitaxel 4.5 mg/kg x 4. The text has this:
Sciatic nerves were isolated from mice after drug treatment and behavioral tests to examine the ultrastructure of nerve fibers. […] To evaluate the integrity of myelin, we calculated the G-ratio (axon perimeter/myelin perimeter) in different treatment groups. Because the symptoms of PIPN mostly manifest with sensory impairment,[28] we roughly classified nerve fibers into larger fibers (diameter > 5 μm) and small fibers (diameter < 5 μm) depending on the type of sensory information conveyed.[29] Large fibers with greater than 5 μm diameter carry information related to proprioception, touch, and pressure. In contrast, small fibers with less than 5 μm diameter carry information related to temperature and pain.
Sciatic nerve samples from mice from each treatment group were isolated after the last time point of mouse behavioral tests. Fixation of sciatic nerves with 4% glutaraldehyde and post fixation with 1% osmium tetroxide solution at 4 °C were performed. […] Transmission electron microscopy (H7650, Hitachi) was used to observe the ultrastructure in the cross section of the sciatic nerves.

[7] abbreviates: Table 1, A: neurite outgrowth (% of control) of test compound 1000 nM + paclitaxel 50 nM, B: paclitaxel 50 nM alone, DRG neurons, read-out: Neuroprotection rate = (A-B)±S.E.M [%].
Where [8] appears, read: supplementary CSV, test compound 1000 nM, read-out: A-B (A: neurite outgrowth (% of control) of test compound (1000 nM) + paclitaxel (50 nM), B: of paclitaxel (50 nM)).
[9] abbreviates: Table S2, test compound 1000 nM + paclitaxel 50 nM minus paclitaxel 50 nM, read-out: Neuroprotection rate = (A-B) ± S.E.M [%].

The values that follow come from PMC8958505, “Discovery of Potential Neuroprotective Agents against Paclitaxel-Induced Peripheral Neuropathy” (Journal of Medicinal Chemistry, 2022).

Structures can show the parent of a compound that is named as a salt. Where two headings read alike, the source gives them in different places.

On to `Nc1cc(N2CCCCC2)nc(N)[n+]1[O-]` [Minoxidil, reference compound], for which, in series [1], the dose causing hypotension is given as 50 mg/kg and the dose causing tachycardia was 25 mg/kg. In series [2], the “protective effect on paclitaxel-induced neuropathy in behavior tests” value is given as “no protective effect”. For the same molecule, the activity at 1 µM in series [3] worked out at 58 ± 8%. In addition, the activity at 1 µM in series [4] is 66 ± 3%. Also, in series [5] (setting [7]), the activation at 1 µM was determined as 15 ± 1.41%.

In the case of `O=P(O)(O)CCN1CCC(Nc2cc(N3CCS(=O)(=O)CC3)nc(NCc3cn(CCCO)nn3)n2)CC1` [CN024, {2-[4-(6-(1,1-Dioxo-1l6-thiomorpholin-4-yl)-2-{[1-(3-hydroxy-propyl)-1H-[1,2,3]triazol-4-ylmethyl]-amino}-pyrimidin-4-ylamino)-piperidin-1-yl]-ethyl}-phosphonic Acid Hydrobromide Salt], the activation at 1 µM came to 7 ± 0.84% in series [5] (setting [7]) and 7% in series [5] (setting [8]).

Turning to `CSCCCn1cc(CNc2nc(NC3CCN(Cc4ccccc4)CC3)cc(N3CCOCC3)n2)nn1` [CN003, N4-(1-Benzyl-piperidin-4-yl)-N2-[1-(3-methylsulfanyl-propyl)-1H-[1,2,3]triazol-4-ylmethyl]-6-morpholin-4-yl-pyrimidine-2,4-diamine], the activation at 1 µM in series [5] (setting [9]) came out at 1 ± 2.6%; in series [5] (setting [8]), 1%.

On to `COC(=O)CCOCCCn1cc(CNc2nc(NC3CCN(CCC(=O)OC)CC3)cc(N3CCOCC3)n2)nn1` [CN011, 3-{3-[4-({4-[1-(2-Methoxycarbonyl-ethyl)-piperidin-4-ylamino]-6-morpholin-4-yl-pyrimidin-2-ylamino}-methyl)-[1,2,3]triazol-1-yl]-propoxy}-propionic Acid Methyl Ester], for which the activation at 1 µM in series [5] (setting [9]) is 4 ± 4.1%; in series [5] (setting [8]), 4%.

Consider `COC(=O)CCOCCCn1cc(CNc2nc(NC3CCN(Cc4ccc5ccccc5c4)CC3)cc(N3CCOCC3)n2)nn1` [CN005, 3-[3-(4-{[4-Morpholin-4-yl-6-(1-naphthalen-2-ylmethyl-piperidin-4-ylamino)-pyrimidin-2-ylamino]-methyl}-[1,2,3]triazol-1-yl)-propoxy]-propionic Acid Methyl Ester], for which the results for the activation at 1 µM in series [5] (setting [9]) and in series [5] (setting [8]) were -3 ± 0.41% and -3%, respectively.

Take `O=P(O)(O)CCN1CCC(Nc2cc(N3CCCCC3)nc(NCc3cn(CCCO)nn3)n2)CC1` [CN022, {2-[4-(2-{[1-(3-Hydroxy-propyl)-1H-[1,2,3]triazol-4-ylmethyl]-amino}-6-piperidin-1-yl-pyrimidin-4-ylamino)-piperidin-1-yl]-ethyl}-phosphonic Acid Hydrobromide Salt]: the figures for the activation at 1 µM in series [5] (setting [7]) and in series [5] (setting [8]) were 6 ± 0.78% and 6%, respectively.

In the case of `COC(=O)CCOCCCn1cc(CNc2nc(NC3CCN(Cc4ccccc4)CC3)cc(N3CCOCC3)n2)nn1` [CN002, 3-[3-(4-{[4-(1-Benzyl-piperidin-4-ylamino)-6-morpholin-4-yl-pyrimidin-2-ylamino]-methyl}-[1,2,3]triazol-1-yl)-propoxy]-propionic Acid Methyl Ester], the activation at 1 µM was -4 ± 0.81% in series [5] (setting [9]) and -4% in series [5] (setting [8]).

As for `O=P(O)(O)CCN1CCC(Nc2cc(N3CCSCC3)nc(NCc3cn(CCCO)nn3)n2)CC1` [CN023, {2-[4-(2-{[1-(3-Hydroxy-propyl)-1H-[1,2,3]triazol-4-ylmethyl]-amino}-6-thiomorpholin-4-yl-pyrimidin-4-ylamino)-piperidin-1-yl]-ethyl}-phosphonic Acid Hydrobromide Salt], the results for the activation at 1 µM in series [5] (setting [7]) and in series [5] (setting [8]) were 4 ± 1.43% and 4%, respectively.

With `COCCCn1cc(CNc2nc(NC3CCN(CCP(=O)(O)O)CC3)cc(N3CCOCC3)n2)nn1` [CN028, {2-[4-(2-{[1-(3-Methoxy-propyl)-1H-[1,2,3]triazol-4-ylmethyl]-amino}-6-morpholin-4-yl-pyrimidin-4-ylamino)-piperidin-1-yl]-ethyl}-phosphonic Acid Hydrobromide Salt], the activation at 1 µM in series [5] (setting [7]) and in series [5] (setting [8]) was -2% throughout.

In the case of `NCCOCCn1cc(CNc2nc(NC3CCN(C(=O)CCNC(=O)C4(O)CC(O)C(O)C(O)C4)CC3)cc(N3CCOCC3)n2)nn1` (stereo not shown) [CN008, 1,3,4,5-Tetrahydroxy-cyclohexanecarboxylic Acid (3-{4-[2-({1-[2-(2-Amino-ethoxy)-ethyl]-1H-[1,2,3]triazol-4-ylmethyl}-amino)-6-morpholin-4-yl-pyrimidin-4-ylamino]-piperidin-1-yl}-3-oxo-propyl)-amide Hydrochloride Salt], the activation at 1 µM is 4 ± 1.44% in series [5] (setting [9]) and 4% in series [5] (setting [8]).

As for `O=P(O)(O)CCN1CCC(Nc2cc(N3CCOCC3)nc(NCc3cn(CCO)nn3)n2)CC1` [CN020, (2-(4-((2-(((1-(2-Hydroxyethyl)-1H-1,2,3-triazol-4-yl)methyl)amino)-6-morpholinopyrimidin-4-yl)amino)piperidin-1-yl)ethyl)phosphonic Acid Hydrobromide Salt], the values for the activation at 1 µM in series [5] (setting [7]) and in series [5] (setting [8]) were 8 to 11% and 8%, respectively.

Take `CC(=O)O[C@H]1C(=O)[C@@]2(C)[C@H]([C@H](OC(=O)c3ccccc3)[C@]3(O)C[C@H](OC(=O)[C@H](O)[C@@H](NC(=O)c4ccccc4)c4ccccc4)C(C)=C1C3(C)C)[C@]1(OC(C)=O)CO[C@@H]1C[C@@H]2O` [paclitaxel, Paclitaxel]: the “fiber loss (myelinated fiber density)” value in series [6] was 25%. Besides, in series [5] (50 nM paclitaxel, DRG neurons), the “reduction in neurite outgrowth compared to the control” value stood at 60%.

Consider `OCCCn1cc(CNc2nc(NC3CCN(Cc4ccccc4)CC3)cc(N3CCOCC3)n2)nn1` [CN004, 3-(4-{[4-(1-Benzyl-piperidin-4-ylamino)-6-morpholin-4-yl-pyrimidin-2-ylamino]-methyl}-[1,2,3]triazol-1-yl)-propan-1-ol], for which the activation at 1 µM is -1 ± 3.2% in series [5] (setting [7]), 1 ± 3.2% in series [5] (setting [9]) and 1% in series [5] (setting [8]).

Regarding `O=C(O)Cn1cc(CNc2nc(NC3CCN(Cc4ccccc4)CC3)cc(N3CCOCC3)n2)nn1` [CN001, (4-{[4-(1-Benzyl-piperidin-4-ylamino)-6-morpholin-4-yl-pyrimidin-2-ylamino]-methyl}-[1,2,3]triazol-1-yl)-acetic Acid Hydrochloride Salt], the activation at 1 µM is -6 ± 0.3% in series [5] (setting [9]) and -6% in series [5] (setting [8]).

Consider `CCOP(=O)(CCN1CCC(Nc2cc(N3CCOCC3)nc(NCc3cn(CCCO)nn3)n2)CC1)OCC` [CN012, {2-[4-(2-{[1-(3-Hydroxy-propyl)-1H-[1,2,3]triazol-4-ylmethyl]-amino}-6-morpholin-4-yl-pyrimidin-4-ylamino)-piperidin-1-yl]-ethyl}-phosphonic Acid Diethyl Ester], for which the activation at 1 µM is 12 ± 1% in series [5] (setting [7]), 9 ± 1% in series [5] (setting [9]) and 9% in series [5] (setting [8]). In addition, in series [5] (pretreated, + 50 nM paclitaxel, DRG neurons), the “protective efficacy against paclitaxel-induced neurotoxicity (in words)” value is listed as “exhibited protective efficacy”.
